Source: ChEMBL document CHEMBL5104169, “Design and synthesis of mogrol derivatives modified on a ring with anti-inflammatory and anti-proliferative activities” (Bioorg Med Chem Lett, 2022)
The source made the active and inactive calls. No cut-off for these calls is given here.

What was measured:
NCI-H1299 [1] = assay: Induction of cell cycle arrest in human NCI-H1299 cells assessed as accumulation G2 phase at 2 uM incubated for 72 hrs (reference value: 16.08%); assay type: functional
NCI-H1975 [2] = assay: Induction of cell cycle arrest in human NCI-H1975 cells assessed as accumulation S phase at 8 uM incubated for 72 hrs (reference value: 22.67%); assay type: functional
NCI-H1975 [3] = assay: Antiproliferative activity against human NCI-H1975 cells; assay type: functional, cell-based
NCI-H1299 [4] = assay: Induction of cell cycle arrest in human NCI-H1299 cells assessed as accumulation G1 phase at 8 uM incubated for 72 hrs (reference value: 40.25%); assay type: functional
NCI-H1975 [5] = assay: Induction of cell cycle arrest in human NCI-H1975 cells assessed as accumulation G2 phase at 8 uM incubated for 72 hrs (reference value: 11.97%); assay type: functional
NCI-H1975 [6] = assay: Antiproliferative activity against human NCI-H1975 cells assessed as decrease in p-p65 expression at 2 to 8 uM measured after 72 hrs by western blot analysis; assay type: functional, cell-based; details: dose 2-8 µM
A549 = assay: Antiproliferative activity against human A549 cells; assay type: functional, cell-based
NCI-H460 = assay: Antiproliferative activity against human NCI-H460 cells; assay type: functional, cell-based
NCI-H1975 [7] = assay: Induction of cell cycle arrest in human NCI-H1975 cells assessed as accumulation G2 phase at 2 uM incubated for 72 hrs (reference value: 11.97%); assay type: functional
NCI-H1299 [8] = assay: Antiproliferative activity against human NCI-H1299 cells; assay type: functional, cell-based
NCI-H1299 [9] = assay: Induction of cell cycle arrest in human NCI-H1299 cells assessed as accumulation G1 phase at 2 uM incubated for 72 hrs (reference value: 40.25%); assay type: functional
NCI-H1299 [10] = assay: Induction of cell cycle arrest in human NCI-H1299 cells assessed as accumulation G2 phase at 8 uM incubated for 72 hrs (reference value: 16.08%); assay type: functional
NCI-H1975 [11] = assay: Induction of cell cycle arrest in human NCI-H1975 cells assessed as accumulation G1 phase at 2 uM incubated for 72 hrs (reference value: 66.36%); assay type: functional
RAW264.7 = assay: Cytotoxicity against mouse RAW264.7 cells at 10 uM measured after 24 hrs by CCK-8 assay relative to control; assay type: toxicity, cell-based; details: raw264.7, 24 h
NCI-H1299 [12] = assay: Induction of cell cycle arrest in human NCI-H1299 cells assessed as accumulation S phase at 8 uM incubated for 72 hrs (reference value: 43.67%); assay type: functional
NCI-H1975 [13] = assay: Induction of cell cycle arrest in human NCI-H1975 cells assessed as accumulation G1 phase at 8 uM incubated for 72 hrs (reference value: 66.36%); assay type: functional
NCI-H1299 [14] = assay: Induction of cell cycle arrest in human NCI-H1299 cells assessed as accumulation S phase at 2 uM incubated for 72 hrs (reference value: 43.67%); assay type: functional
NCI-H1975 [15] = assay: Induction of cell cycle arrest in human NCI-H1975 cells assessed as accumulation S phase at 2 uM incubated for 72 hrs (reference value: 22.67%); assay type: functional

- IC50 (NCI-H1975 [3]): 7.24 µM
- IC50 (A549): 11.1 µM
- IC50 (NCI-H460): 15.7 µM
- IC50 (NCI-H1299 [8]): 8.39 µM
Structure (SMILES): C[C@H](CC[C@@H](O)C(C)(C)O)[C@H]1CC[C@@]2(C)[C@@H]3CC=C4[C@@H](C/C(=C\c5ccncc5)C(=O)C4(C)C)[C@]3(C)C(=O)C[C@]12C
- Activity (NCI-H1299 [1]): 17.4%
- Activity (NCI-H1975 [2]): 9.67%
- Activity (NCI-H1299 [4]): 50.5%
- Activity (NCI-H1975 [5]): 6.38%
- Activity (NCI-H1975 [6]): Active
- Activity (NCI-H1975 [7]): 12.84%
- Activity (NCI-H1299 [9]): 42.49%
- Activity (NCI-H1299 [10]): 16.38%
- Activity (NCI-H1975 [11]): 66.51%
- Activity (RAW264.7): Toxic
- Activity (NCI-H1299 [12]): 33.12%
- Activity (NCI-H1975 [13]): 83.96%
- Activity (NCI-H1299 [14]): 40.12%
- Activity (NCI-H1975 [15]): 20.66%
